The target in the test is T1, proMMP9 (Rattus norvegicus, UniProt P50282).
T1 construct: endogenous in cells; host or cells: primary synoviocytes from arthritic female Lewis rats, TNFα-stimulated in collagen gels
Briefly: Activation of proMMP9 in rat synoviocyte cultures (Western blot). It counts as cell-based. The settings on record: 80 kD band, pAb-1246. The text has this: A primary synoviocytes line was derived from the periarticular tissue of arthritic rats. Arthritis was induced in female Lewis rats following an i.p. administration of streptococcal cell wall peptidoglycan polysaccharides (J Exp Med 1977; 146:1585-1602). Rats with established arthritis were sacrificed, and hind-limbs were severed, immersed briefly in 70% ethanol, and placed in a sterile hood. The skin was removed and the inflamed tissue surrounding the tibia-tarsal joint was harvested using a scalpel. Tissue from six rats was pooled, minced to approximately 8 mm^3 pieces, and cultured in Dulbecco's Modified Eagle's Medium (DMEM) containing 15% fetal calf serum (FCS). In the following weeks, cells migrated out of the tissue piece, proliferated, and formed a monolayer of adherent cells. The synoviocytes were lifted from culture plates with 0.05% trypsin and passaged weekly at 1:4 ratios in DMEM containing 10% FCS. Synoviocytes were used at passage 9 to investigate the ability of Example 64 to inhibit the maturation of MMP9 to active form.
Rat synoviocytes spontaneously expressed and activated MMP9 when cultured in collagen gels and stimulated with tumor necrosis factor-alpha (TNFα) (FIG. 1 and Table 3). Eight volumes of an ice-cold solution of 3.8 mg/mL rat tail collagen (Sigma Cat #C3867-1VL) were mixed with 1 volume of 1 M sodium bicarbonate and 1 volume of 10× Roswell Park Memorial Institute medium. The pH of the mixture was adjusted to pH 7 with 1 N sodium hydroxide and equal volumes of the pH-adjusted collagen solution were mixed with DMEM containing 0.8 million synoviocytes per mL. One half mL volumes were dispensed into Costar 24-well culture dishes and placed for one hr at 37° C. and 5% CO2, during which time the collagen solution formed a gel. Individual gels were dislodged into wells of 12-well Costar plates containing 1 mL/well of DMEM adjusted to contain 0.05% BSA and 100 ng/mL mouse TNFα (R&D Systems Cat #410-MT-010). […] After overnight culture at 37° C. and 5% CO2, wells were adjusted to contain an additional 0.5 mL of DMEM containing 0.05% BSA and Example 64 at 4× the final desired concentration (final culture volumes were 2 mL). The plates were cultured an additional 48 hrs, at which time 1 mL of conditioned media were harvested into fresh eppendorf tubes containing 40 μL/mL of a 50% slurry of gelatin-conjugated sepharose (GE Healthcare Cat #17-0956-01). Samples were rotated for 2 hrs at 4° C. before centrifugation 1 min×200 g. Supernatants were discarded. The gelatin-sepharose pellets were washed once with 1 mL of ice cold DMEM, resuspended in 50 μL of 2× reducing Leamli buffer and heated 5 min at 95° C. […] Chemiluminesence signal was analyzed using a ChemiDoc imaging system (BioRad Laboratories) and Quantity One® image software. […]
(In general: A western blot detects proteins with antibodies after separation by electrophoresis.)

By inhibition is commonly meant the drop in the measured response relative to a control, in per cent.

T1 sequence (P50282 20-708 limits assumed): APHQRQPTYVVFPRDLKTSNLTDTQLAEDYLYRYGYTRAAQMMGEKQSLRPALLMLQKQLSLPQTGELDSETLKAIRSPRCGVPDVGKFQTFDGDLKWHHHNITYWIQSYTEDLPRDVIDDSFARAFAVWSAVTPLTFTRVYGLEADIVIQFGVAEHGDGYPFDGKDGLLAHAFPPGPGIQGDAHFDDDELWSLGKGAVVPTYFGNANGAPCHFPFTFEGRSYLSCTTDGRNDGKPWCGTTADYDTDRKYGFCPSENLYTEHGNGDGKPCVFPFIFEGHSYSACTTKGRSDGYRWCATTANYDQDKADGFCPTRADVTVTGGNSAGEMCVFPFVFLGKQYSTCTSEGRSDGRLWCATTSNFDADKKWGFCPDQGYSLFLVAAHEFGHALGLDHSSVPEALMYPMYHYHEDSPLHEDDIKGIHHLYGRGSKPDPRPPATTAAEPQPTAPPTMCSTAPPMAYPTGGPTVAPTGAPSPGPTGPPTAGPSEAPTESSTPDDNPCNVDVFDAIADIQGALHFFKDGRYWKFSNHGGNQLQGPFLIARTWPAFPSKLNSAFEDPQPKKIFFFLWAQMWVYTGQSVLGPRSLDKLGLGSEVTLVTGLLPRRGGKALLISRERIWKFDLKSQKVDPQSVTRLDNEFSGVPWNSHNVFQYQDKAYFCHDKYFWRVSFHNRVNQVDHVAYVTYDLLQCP

Take `Cc1nc(C)c(-c2csc(Nc3cc(S(N)(=O)=O)ccc3OC(C)C)n2)s1` [Example 64, 3-(2′,4′-Dimethyl-[4,5′]bithiazolyl-2-ylamino)-4-isopropoxy-benzenesulfonamide.HBr]: the inhibition at 0.37 µM (0.37 μM) stood at 12%. This compound also showed an inhibition at 1.1 µM (1.1 μM) of 46%. The compound also displayed an inhibition at 3.3 µM (3.3 μM) of 86%. Where the note is “10 μM”, this compound registered an inhibition at 10 µM of 97%.
